Experimental data as given in patent publication US9212151B2, “Heterocyclic compounds useful for kinase inhibition” (Amitech Therapeutic Solutions, Inc., priority 2010, dated 2015).

Assay: MTT cell viability assay, compounds at 5, 1 and 0.2 μM, 48 hours
Format: cell-based
Settings: human, A549 tumor cells
Protocol: MTT assay is used to determine cell proliferation, percent of viable cells, and cytotoxicity. MTT (3-[4,5-dimethylthiazol-2-yl]2,5-diphenyltetrazolium bromide) is a yellow dye, which can be absorbed by the living cells and be reduced to purplish blue formazan crystals by succinate tetrazolium reductase in mitochondria. Formazan formation can therefore be used to assess and determine the survival rate of cells.
Tumor cells (A549) were plated at 2500 cells/well of a 96-well plate in complete growth medium (DMEM+10% FBS, antibiotic/antimycotic, fungizone, L-glutamine, sodium pyruvate, and non-essential amino acids). The cells were allowed to grow overnight. After cell proliferation, the cells were washed and re-suspended in fresh culture medium and placed in 96 well plates.
To each of the 96 well plates containing A549 and a control, 5, 1, and 0.2 μM of the exemplary compounds 1-200 were add. The 96 well plates were incubated for 48 hours. Cell viability was measured by adding MTT (Sigma) at 5 mg/ml for 4 h to the cells and then removing the medium and resuspending each well in 50 μl DMSO to solubilize the crystals. The 96-well plates were read on a plate-scanning spectrophotometer (BioTek) at an absorbance of […]. The survival rate of cells was calculated based on the measurement of absorption at the 570 nm wavelength by enzyme immunoassay analyzer.

Structure (SMILES)	viability at 48 h, 0.2 µM (0.2 μM) [%]	viability at 48 h, 1 µM (1 μM) [%]	viability at 48 h, 5 µM (5 μM) [%]	viability at 48 h, 0.2 µM (0.2 μM compound) [%]	viability at 48 h, 1 µM (1 μM compound) [%]	viability at 48 h, 5 µM (5 μM compound) [%]
Cc1ccc2nccc(Oc3ccc(-c4nnc(Nc5cccc(C(F)(F)F)c5)[nH]4)cc3)c2c1 [Compound 162]	> 70	> 70	> 70	–	–	–
CNC(=O)CSc1nc(N)cc(Oc2ccc(-c3nnc(Nc4cccc(C(F)(F)F)c4)[nH]3)cc2)n1 [Compound 117]	> 70	> 70	> 70	–	–	–
CC(C)(C)Sc1cc(Oc2cccc(-c3nnc(Nc4cccc(C(F)(F)F)c4)[nH]3)c2)nc(N)n1 [Compound 151]	> 70	> 70	> 70	–	–	–
CSc1nc(Oc2cccc(-c3nnc(Nc4cccc(C(F)(F)F)c4)[nH]3)c2)c2cc[nH]c2n1 [Compound 56]	> 70	> 70	> 70	–	–	–
COc1ccc2c(Oc3cccc(-c4nnc(Nc5cccc(C(F)(F)F)c5)[nH]4)c3)cc(C)nc2c1 [Compound 194]	> 70	> 70	> 70	–	–	–
CCOc1nc(N)cc(Oc2cccc(-c3nnc(Nc4cccc(C(F)(F)F)c4)[nH]3)c2)n1 [Compound 97]	> 70	> 70	> 70	–	–	–
CCCNc1cc(Oc2ccc(-c3nnc(Nc4cccc(C(F)(F)F)c4)[nH]3)cc2)nc(SC)n1 [Compound 144]	> 70	> 70	50 to 70	–	–	–
CSc1nc(N)cc(Oc2ccc(-c3cnc(Nc4cccc(C(F)(F)F)c4)[nH]3)cc2)n1 [Compound 199]	–	–	–	< 50	< 50	< 50
COCCOc1cc(Oc2cccc(-c3nnc(Nc4cccc(C(F)(F)F)c4)[nH]3)c2)nc(N)n1 [Compound 58]	> 70	> 70	> 70	–	–	–
COc1ccc2nccc(Oc3cccc(-c4nnc(Nc5cccc(C(F)(F)F)c5)[nH]4)c3)c2c1 [Compound 191]	> 70	> 70	> 70	–	–	–
CS(=O)(=O)c1nc(N)cc(Oc2ccc(-c3nnc(Nc4cccc(C(F)(F)F)c4)[nH]3)cc2)n1 [Compound 64]	> 70	> 70	> 70	–	–	–
CSc1nc(N)cc(Oc2ccc(-c3nnc(Nc4cccc(C(F)(F)F)c4)[nH]3)c(F)c2)n1 [Compound 107]	> 70	> 70	50 to 70	–	–	–
NS(=O)(=O)c1cnccc1Oc1ccc(-c2nnc(Nc3cccc(C(F)(F)F)c3)[nH]2)cc1 [Compound 7]	> 70	> 70	> 70	–	–	–
COc1ccc2c(Oc3cccc(-c4nnc(Nc5cccc(C(F)(F)F)c5)[nH]4)c3)ccnc2c1 [Compound 22]	> 70	> 70	> 70	–	–	–
Nc1cc(Oc2ccc(-c3nnc(Nc4cccc(C(F)(F)F)c4)[nH]3)cc2)nc(SCC(=O)O)n1 [Compound 116]	> 70	> 70	> 70	–	–	–
FC(F)(F)c1cccc(Nc2nnc(-c3ccc(Oc4nccc(Cl)n4)cc3)o2)c1 [Compound 26]	> 70	> 70	> 70	–	–	–
FC(F)(F)c1cccc(Nc2nnc(-c3ccc(Oc4cncc5ccccc45)cc3)[nH]2)c1 [Compound 146]	> 70	> 70	< 50	–	–	–
FC(F)(F)c1cccc(Nc2nnc(-c3ccc(Oc4cc(C(F)(F)F)nc5ccccc45)cc3)[nH]2)c1 [Compound 159]	> 70	> 70	50 to 70	–	–	–
Nc1cc(Oc2cccc(-c3nnc(Nc4cccc(C(F)(F)F)c4)o3)c2)ccn1 [Compound 38]	> 70	> 70	> 70	–	–	–
COc1cc(Oc2ccc(-c3nnc(Nc4cccc(C(F)(F)F)c4)[nH]3)cc2)ncn1 [Compound 76]	> 70	> 70	50 to 70	–	–	–
COc1ccc2c(Oc3cc(-c4nnc(Nc5cccc(C(F)(F)F)c5)[nH]4)ccc3C)ccnc2c1 [Compound 197]	–	–	–	> 70	> 70	> 70
COc1ccc2c(Oc3ccc(Nc4nnc(-c5cccc(C(F)(F)F)c5)[nH]4)cc3)ccnc2c1 [Compound 175]	> 70	> 70	> 70	–	–	–
